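Test compounds were applied to cells in 96-well plates for 48 hours at 5 doses. GI50 marks 50% less growth. TGI marks complete inhibition of growth.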
Key:
Assay in all cases: NCI anticancer screen, dose series, 48 h
HT29 colon = tested on: HT29 colon
MDA-MB-435 = tested on: MDA-MB-435
NCI-H23 lung = tested on: NCI-H23 lung
OVCAR-5 ovarian = tested on: OVCAR-5 ovarian
OVCAR-8 ovarian = tested on: OVCAR-8 ovarian
RPMI-8226 leukemia = tested on: RPMI-8226 leukemia
SK-MEL-5 melanoma = tested on: SK-MEL-5 melanoma
SN12C renal = tested on: SN12C renal
UACC-257 melanoma = tested on: UACC-257 melanoma
HL-60(TB) leukemia = tested on: HL-60(TB) leukemia

Compound	TGI (HT29 colon) [µM]	TGI (MDA-MB-435) [µM]	TGI (NCI-H23 lung) [µM]	TGI (OVCAR-5 ovarian) [µM]	TGI (OVCAR-8 ovarian) [µM]	TGI (RPMI-8226 leukemia) [µM]	TGI (SK-MEL-5 melanoma) [µM]	TGI (SN12C renal) [µM]	TGI (UACC-257 melanoma) [µM]	GI50 (OVCAR-8 ovarian) [µM]	GI50 (RPMI-8226 leukemia) [µM]	GI50 (SK-MEL-5 melanoma) [µM]	GI50 (SN12C renal) [µM]	GI50 (UACC-257 melanoma) [µM]	TGI (HL-60(TB) leukemia) [µM]
CC1Cc2c(cc(N)nc2Br)NC1=O (stereo unspecified)	> 100	> 100	> 100	> 100	> 100	> 100	> 100	> 100	> 100						
CCCCNC(=S)Nc1nc(C(=O)NNC(=S)NCc2ccccc2)cs1	> 100	> 100	> 100	> 100	> 100	> 100	70.2	> 100	83.9						
C=C1C(=O)O[C@H]2[C@H]1CC/C(COC(=O)/C=C/C(=O)OC/C1=C/CC[C@@]3(C)O[C@H]3[C@H]3OC(=O)C(=C)[C@@H]3CC1)=C\CC[C@@]1(C)O[C@@H]21					3.05	4	> 100	4.04	3.14	1.53	0.868	4.34	1.49	1.64	
CCOc1ccccc1N=NC1C(=O)N(C(=O)CC(=O)Nc2ccccc2OC)N=C1C (stereo unspecified)	> 100	> 100	> 100	> 100	> 100	> 100	> 100	> 100							> 100
CC(=O)OCC1(CNc2nc(N)ncc2C#N)CC(CCc2ccccc2)C1 (stereo unspecified)	> 100	> 100	> 100	> 100	> 100		42.8	> 100	> 100						> 100
c1ccc2c(c1)ccc1nc(-c3ccc4c(c3)OCO4)c3c(c12)CCC3	> 100	> 100	> 100	> 100	> 100	> 100		> 100	> 100						
COc1ccc(/C=N/N=C(\N)NO)c(OC)c1OC	> 100	> 100	> 100	> 100	41.9	> 100	72	> 100							45.8
Cc1ccc(S(=O)(=O)CC2CCCn3c2c(C#N)c2ccccc23)cc1 (stereo unspecified)	> 100	> 100	> 100	> 100	> 100	> 100	> 100	> 100	> 100						
Cc1ccc(Cl)c2c(=O)cc(-c3ccccc3)[nH]c12	> 100		> 100	> 100	> 100	> 100	> 100	> 100	> 100						> 100
Oc1ccc(O)c(Sc2nnc(CCCCCCCCc3nnc(Sc4cc(O)ccc4O)o3)o2)c1	> 100	35.8	> 100	> 100		> 100	> 100	> 100	> 100						
C=C1CN=C(Nc2ccc(F)cc2F)S1	> 100		> 100	> 100	> 100	> 100	> 100	> 100	> 100						> 100
COc1ccc(C[C@H]2COC(=O)[C@@H]2Cc2ccccc2)cc1OC	> 100		> 100	> 100	> 100	> 100	> 100	> 100	> 100						
OCC1c2ccccc2-n2nc(-c3ccccc3)c(O)c21 (stereo unspecified)	76.4	92.2	> 100	> 100	37.6		> 100	36.8	> 100						
Cn1cnc(/C=C/C#N)c1	> 100	> 100	> 100	> 100	> 100		> 100	> 100	> 100						
O=c1oc2ccccc2c(O)c1C(c1ccc(O)cc1)c1c(O)c2ccccc2oc1=O	> 100	> 100	> 100		> 100		> 100	> 100	> 100						
O=C1/C(=C/C=C/c2ccccc2)CCC1CNc1ccc(Br)cc1 (stereo unspecified)	> 100	> 100	> 100	> 100	> 100		> 100	> 100	> 100						> 100
CCn1c(SCc2nnc(Nc3ccccc3)s2)nc2ccccc2c1=O	12.5	> 100	19.4	31.1	5.09	37.1	32.5	18.2	51.9						
O=C(O)Cn1ncn(NC(=O)Cc2ccccc2)c1=S	> 10	> 10	> 10	> 10	> 10	> 10	> 10	> 10	> 10						

— PubChem BioAssay (NCI)
